Drawing on patent US20190375708A1 (VenatoRx Pharmaceuticals, Inc., priority 2018, published 2019), this text covers CC50 and EC50 for 24 compounds.

Series [1] can be described thus: In vitro cytotoxicity assay (MTT cell viability) in HepG2 cells. In kind it is cell-based, human. The settings on record: human. In outline:
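HepG2 seeded overnight, then 7-day compound exposure (30 μM–1.0 nM, half-log steps), 37 °C. MTT 3-4 h, DMSO solubilization, A492. % of vehicle → CC50, 4-PL fit.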

Series [2] has as its system HBV replication in HepAD38 cells. The experiment in a line: Anti-HBV replication assay in HepAD38 cells (QPCR of extracellular HBV DNA). The settings on record: Hepatitis B virus, 168 h, 7 days incubation, extracellular HBV DNA by QPCR, read-out: Anti-HBV EC50. In kind it is cell-based, HBV (genotype D, serotype ayw). Summed up:
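HepAD38 cells (HepG2 carrying tet-repressible HBV genotype D genome) induced by tetracycline withdrawal, treated 7 days at 37 °C with compound ([…], 1-log10 dilutions). Extracellular HBV DNA quantified by QPCR against a standard curve, normalised to DMSO; EC50 from 4-parameter fit.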

For orientation: CC50 means the concentration at which the toxic effect on the cells reaches its halfway point. Lower therefore signals harm at low concentration. One may read the EC50 as the concentration at which the effect is half-maximal. Consider `Cc1c(C(=O)Nc2cccc(C(F)F)c2)c(C)n(C)c1C(=O)C(=O)N[C@H]1CC[C@@H](O)CC1` [Example 690, N-(3-(difluoromethyl)phenyl)-5-(2-(((1s,4s)-4-hydroxycylcohexyl)amino)-2-oxoacetyl)-1,2,4-trimethyl-1H-pyrrole-3-carboxamide], for which the CC50 at 7 days in series [1] was greater than 30000 nM. Moreover, in series [2], the 50% effective concentration (EC50) is less than 50 nM.

`Cc1noc([C@H](C)NC(=O)C(=O)c2c(Cl)c(C(=O)Nc3ccnc(F)c3)c3n2CCCC3)n1` [Example 509, (S)-2-chloro-N-(2-fluororpyridin-4-yl)-3-(2-((1-(3-methyl-1,2,4-oxadiazol-55-yl)ethyl)amino)-2-oxoacetyl)-5,6,7,8-tetrahydroindoliznie-1-carboxamide] displayed a CC50 at 7 days in series [1] greater than 30000 nM. The concentration giving a half-maximal response (EC50) in series [2] fell in the range of 500 to 1000 nM.

`O=C(N[C@H]1COC[C@@H]1O)C(=O)c1c(Cl)c(C(=O)Nc2ccc(F)c(Cl)c2)c2n1CCCC2` [Example 513, 2-chloro-N-(3-chloro-4-fluorophenyl)-3-(2-(((3S,4R)-4-hydroxytetrahydrofuran-3-yl)amino)-2-oxoacetyl)-5,6,7,8-tetrahydroindolizine-1-carboxamide] gave a CC50 at 7 days in series [1] greater than 30000 nM. In series [2], the EC50 was 50 to 499 nM.

In turn, `CC(C)(C)NC(=O)C(=O)c1cc(C(=O)Nc2cc(F)c(F)c(F)c2)c2n1CCCC2` [Example 396, 3-(2-(tert-butylamino)-2-oxoacetyl)-N-(3,4,5-trifluorophenyl)-5,6,7,8-tetrahydroindolizine-1-carboxamide] came in with a CC50 at 7 days in series [1] of 5000 to 30000 nM. Moreover, in series [2], the EC50 was 50 to 499 nM.

On to `Cc1cc(NC(=O)c2c(C)c(C(=O)C(=O)NC3(CO)CC(F)(F)C3)n(C)c2C)ccc1F` [Example 126, 5-(2-((3,3-difluoro-1-(hydroxymethyl)cyclobutyl)amino)-2-oxoacetyl)-N-(4-fluoro-3-methylpheenyl)-1,2,4-trimethyl-1H-pyrrole-3-carboxamide], for which, in series [1], the CC50 at 7 days is greater than 30000 nM. Besides, the EC50 in series [2] was less than 50 nM.

As for `Cc1c(C(=O)Nc2ccc(F)c(F)c2)c2n(c1C(=O)C(=O)NC1(CO)CCC1)CCCC2` [Example 460, N-(3,4-difluorophenyl)-3-(2-((1-(hydroxymethyl)cyclobutyl)amino)-2-oxoacetyl)-2-methyl-5,6,7,8-tetrahydroindoline-1-carboxamide], the CC50 at 7 days in series [1] lay in the range of 5000 to 30000 nM. Further, in series [2], the EC50 is less than 50 nM.

`Cc1cc(NC(=O)c2c(C)c(C(=O)C(=O)N[C@H]3CC[C@@](C)(O)CC3)n(C)c2C)ccc1F` [Example 214, N-(4-fluoro-3-methylphenyl)-5-(2-(((1s,4s)-4-hydroxy-4-methylcyclohexyl)amino)-2-oxoacetyl)-1,2,4-trimethyl-1H-pyrrole-3-carboxamide] returned a CC50 at 7 days in series [1] greater than 30000 nM. Moreover, the EC50 in series [2] was less than 50 nM.

`Cc1cc(NC(=O)c2c(C)c(C(=O)C(=O)NCCN3CCNC(=O)C3)n(C)c2C)ccc1F` [Example 300, N-(4-fluoro-3-methylphenyl)-1,2,4-trimethyl-5-(2-oxo-2-((2-(3-oxopiperazin-1-yl)ethyl)amino)acetyl)-1H-pyrrole-3-carboxamide] showed a CC50 at 7 days in series [1] greater than 30000 nM. Besides, in series [2], the EC50 lay within 50 to 499 nM.

As to `Cc1cc(NC(=O)c2c(C)c(C(=O)C(=O)N[C@]3(C(F)(F)F)CC[C@H](O)CC3)n(C)c2C)ccc1F` [Example 282, N-(4-fluoro-3-methylphenyl)-5-(2-(((1s,4s)-4-hydroxy-1-(trifluoromethyl)cyclohexyl)amino)-2-oxoacetyl)-1,2,4-trimethyl-1H-pyrrole-3-carboxamide], the CC50 at 7 days in series [1] was greater than 30000 nM. Further, in series [2], the EC50 was less than 50 nM.

In series [1], `Cc1nc(C(C)(NC(=O)C(=O)c2c(C)c(C(=O)Nc3ccc(F)c(C)c3)c(C)n2C)C2CC2)no1` (stereo not drawn) [Example 716, 5-(2-((1-cyclopropyl-1-(5-methyl-1,2,4-oxadiazol-3-yl)ethyl)amino)-2-oxoacetyl)-N-(4-fluoro-3-methylphenyl)-1,2,4-trimethyl-1H-pyrrole-3-carboxamide] displayed a CC50 at 7 days greater than 30000 nM. For the same compound, the half-maximal effective concentration (EC50) in series [2] was less than 50 nM.

As to `Cc1cc(NC(=O)c2c(Cl)c(C(=O)C(=O)NC(C)(C)C(F)(F)F)n3c2CCC3)cnc1F` [Example 573, 6-chloro-N-(6-fluoro-5-methylpyridin-3-yl)-5-(2-oxo-2-((1,1,1-trifluoro-2-methylpropan-2-yl)amino)acetyl)-2,3-dihydro-1H-pyrrolizine-7-carboxamide], the CC50 at 7 days in series [1] is greater than 30000 nM. Further, the EC50 in series [2] fell in the range of 50 to 499 nM.

Compound `CC(C)(CO)NC(=O)C(=O)c1cc(C(=O)Nc2ccc(F)c(C(F)F)c2)c2n1CCCC2` [Example 429, N-(3-(difluoromethyl)-4-fluorophenyl)-3-(2-((1-hydroxy-2-methylpropan-2-yl)amino)-2-oxoacetyl)-5,6,7,8-tetrahydroindolizine-1-carboxamide] came in with a CC50 at 7 days in series [1] greater than 30000 nM. The EC50 in series [2] was 50 to 499 nM.

On to `Cc1cc(NC(=O)c2c(C)c(C(=O)C(=O)NC(C)(C)C)n(C)c2C)cnc1F` [Example 112, 5-(2-(tert-butylamino)-2-oxoacetyl)-N-(6-fluoro-5-methylpyridin-3-yl)-1,2,4-trimethyl-1H-pyrrole-3-carboxamide], for which, in series [1], the CC50 at 7 days is greater than 30000 nM. Further, the EC50 in series [2] lay in the range of 50 to 499 nM.

`O=C(NC1(CO)CC(F)(F)C1)C(=O)c1c(Cl)c(C(=O)Nc2ccc(F)c(F)c2)c2n1CCCC2` [Example 520, 2-chloro-3-(2-((3,3-difluoro-1-(hydroxymethyl)cyclobutyl)amino)-2-oxoacetyl)-N-(3,4-difluorophenyl)-5,6,7,8-tetrahydroindolizine-1-carboxamide] gave a CC50 at 7 days in series [1] greater than 30000 nM. The EC50 in series [2] is less than 50 nM.

Turning to `Cc1cc(Cl)cc(NC(=O)c2c(C)c(C(=O)C(=O)N[C@]3(C)CC[C@@H](O)CC3)n(C)c2C)c1` [Example 687, N-(3-chloro-5-methylphenyl)-5-(2-(((1r,4r)-4-hydroxy-1-metthylcyclohexyl)amino)-2-oxoacetyl)-1,2,4-trimethyl-1H-pyrrole-3-carboxamide], the CC50 at 7 days in series [1] is 5000 to 30000 nM. Besides, the 50% effective concentration (EC50) in series [2] is less than 50 nM.

For `Cc1cc(NC(=O)c2c(C)c(C(=O)C(=O)N[C@@H](C(=O)NCCO)C(C)(C)C)n(C)c2C)ccc1F` [Example 86, (R)-N-(4-fluoro-3-methylphenyl)-5-(2-((1-((2-hydroxyethyl)amino)-3,3-dimethyl-1-oxobutan-2-yl)amino)-2-oxoacteyl)-1,2,4-trimethyl-1H-pyrrole-3-carboxamide], the CC50 at 7 days in series [1] lay in the range of 5000 to 30000 nM. The EC50 in series [2] is less than 50 nM.

As for `Cc1c(C(=O)Nc2ccnc(F)c2)c(C)n(C)c1C(=O)C(=O)NC(C)(C)C` [Example 89, 5-(2-(tert-butylamino)-2-oxoacetyl)-N-(2-fluoropyridin-4-yl)-1,2,4-trimethyl-1H-pyrrole-3-carboxamide], in series [1], the CC50 at 7 days is greater than 30000 nM. Further, in series [2], the EC50 was less than 50 nM.

As to `Cc1cc(NC(=O)c2c(Cl)c(C(=O)C(=O)N[C@H]3COC[C@@H]3O)n3c2CCC3)ccc1F` [Example 572, 6-chloro-N-(4-fluoro-3-methylphenyl)-5-(2-(((3S,4R)-4-hydroxytetrahydrofuran-3-yl)amino)-2-oxoacetyl)-2,3-dihydro-1H-pyrrolizine-7-carboxamide], the CC50 at 7 days in series [1] is greater than 30000 nM. Also, the EC50 in series [2] is less than 50 nM.

Compound `Cc1noc([C@H](C)NC(=O)C(=O)c2c(Cl)c(C(=O)Nc3ccc(F)c(Cl)c3)c3n2CCC3)n1` [Example 553, (S)-6-chloro-N-(3-chloro-4-fluorophenyl)-5-(2-((1-(3-methyl-1,2,4-oxadiazol-5-yl)ethyl)amino)-2-oxoacetyl)-2,3-dihydro-1H-pyrrolizine-7-carboxamide] yielded a CC50 at 7 days in series [1] of 5000 to 30000 nM. In addition, the EC50 in series [2] was less than 50 nM.

For the compound `O=C(N[C@H]1CCC[C@H]1O)C(=O)c1c(Cl)c(C(=O)Nc2ccc(F)c(Cl)c2)c2n1CCCC2` [Example 514, 2-chloro-N-(3-chloro-4-fluorophenyl)-3-(2-(((1S,2R)-2-hydroxycyclopentyl)amino)-2-oxoacettyl)-5,6,7,8-tetrahydroindolizine-1-carboxamide], in series [1], the CC50 at 7 days fell in the range of 5000 to 30000 nM. Further, the EC50 in series [2] is 50 to 499 nM.

Regarding `Cc1nc2c(s1)C(NC(=O)C(=O)c1c(C)c(C(=O)Nc3ccnc(F)c3)c(C)n1C)CCC2` (stereo not drawn) [Example 607, N-(2-fluoropyridin-4-yl)-1,2,4-trimethyl-5-(2-((2-methyl-4,5,6,7-tetrahydrobenzo[d]thiazol-7-yl)amino)-2-oxoacetyl)-1H-pyrrole-3-carboxamide], the CC50 at 7 days in series [1] was greater than 30000 nM. Also, the concentration for a half-maximal effect (EC50) in series [2] is less than 50 nM.

In turn, `Cc1cc(NC(=O)c2c(C)c(C(=O)C(=O)NC3(C(N)=O)C4CC5CC(C4)CC3C5)n(C)c2C)ccc1F` (stereo not drawn) [Example 43, 5-(2-(((1r,3r,5r,7r)-2-carbamoyladamantan-2-yl)amino)-2-oxoacetyl)-N-(4-fluoro-3-methylphenyl)-1,2,4-trimethyl-1H-pyrrole-3-carboxamide] returned a CC50 at 7 days in series [1] of 500 to 4990 nM. The concentration for a half-maximal effect (EC50) in series [2] is less than 50 nM.

Regarding `Cc1cc(NC(=O)c2c(Cl)c(C(=O)C(=O)NC3(CO)CCC3)n3c2CCCC3)ccc1F` [Example 504, 2-chloro-N-(4-fluoro-3-methylphenyl)-3-(2-((1-(hydroxymethyl)cyclobutyl)amino)-2-oxoacetyl)-5,6,7,8-tetrahydroindolizine-1-carboxamide], the CC50 at 7 days in series [1] was 5000 to 30000 nM. The 50% effective concentration (EC50) in series [2] is less than 50 nM.

In the case of `Cc1cc(NC(=O)c2c(C)c(C(=O)C(=O)NCCc3ccsc3)n(C)c2C)ccc1F` [Example 646, N-(4-fluoro-3-methylphenyl)-1,2,4-trimethyl-5-(2-oxo-2-((2-(thiophen-3-yl)ethyl)amino)acetyl)-1H-pyrrole-3-carboxamide], the CC50 at 7 days in series [1] lay within 5000 to 30000 nM. For the same compound, in series [2], the EC50 was less than 50 nM.
